Each structure is given as a SMILES string. “And” between values parts separate entries of the source, which are not always exact repeats. Equal values may be shown once. Read-outs that look alike come from different tables or passages of the source.

The target of one series is mGFP-K-RASG12V (Homo sapiens (Human), UniProt P01116, G12V). Nature of the series: K-Ras mislocalization assay (confocal microscopy, Manders coefficient). The series is classed as cell-based. The arrangement: key to Emax: Manders coefficient: fraction of mCherry-CAAX co-localizing with GFP-K-Ras. As to conditions: for IC50 / Emax: MDCK cells; for IC50: 48 h treatment, read-out: IC50 (μM), KRASG12V mislocalization; for Emax: maximal effect, Manders coefficient, 48 h. How it is done: Madine Darby Canine Kidney epithelial cells (MDCK) stably co-expressing mGFP-tagged full length oncogenic mutant K-Ras (GFP—K-RASG12V) or mGFP-LactC2 (peptide probe for phosphatidylserine) and mCherry-tagged to the amino acids 179-189 of H-RasC181S, C184S (mCherry-CAAX, localizes primarily to endomembranes) were grown in DMEM-high glucose/sodium pyruvate/10% FBS. The medium was supplemented with 1× Penicillin/Streptomycin for fluorescence microscopy assays, to avoid any microbial contamination from the test compounds added. KLE and Hec50 cells were maintained in DMEM-F-12 medium supplemented with 10% FBS. Hec-1A and Hec-1B cells were grown in McCoy's 5a medium supplemented with 10% FBS. ESS-1 cells were grown in RPMI 1640 medium supplemented with 20% FBS. MPanc96 cells were grown in DMEM supplemented with 10% FBS, MiaPaCa-2 cells in DMEM supplemented with 10% FBS and 2.5% horse serum and all other cell lines were grown in RPMI 1640 supplemented with 10% FBS. All cancer cell media were supplemented with ×Penicillin/Streptomycin. All cell lines were grown at 37° C. with 5% CO2.
MDCK co-expressing GFP—K-RASG12V or LactC2 and mCherry-CAAX were grown on coverslips, treated with 0.1% vehicle (DMSO) or various concentrations of drugs for 48 h, and fixed with 4% paraformaldehyde. The coverslips were mounted in mowiol and imaged by confocal microscopy (Nikon A1) using a 60× objective. Using ImageJ software v1.42q, images were converted to 8-bit, and a threshold to a control pixel of each image was set. As a measure of K-Ras/LactC2 mislocalization, the fraction of mCherry-CAAX co-localizing with mGFP-K-RASG12V was calculated using a Manders coefficient plugin downloaded from Wright Cell Image Facility. The fraction of mCherry-CAAX co-localizing with mGFP-RASG12V (Mander's coefficient) is proportional to K-Ras mislocalization.

The subject of series [1] is MDCK cells co-expressing GFP-K-RASG12V and mCherry-CAAX. Kind of series: Cytotoxicity in mislocalization screen (death of all cells in well). The conditions noted are these: drug caused death of all cells in well at 30 μM.

Consider `COc1ccc([C@@H](C)N(CC=C(c2ccccc2)c2ccccc2)CCN2CCCCC2)cc1` [NY329, (R)-N-(1-(4-methoxyphenyl)ethyl)-3,3-diphenyl-N-(2-(piperidin-1-yl)ethyl)prop-2-en-1-amine], for which, on mGFP-K-RASG12V, the IC50 came to 0.6 µM and the Emax is reported as 0.83 ± 0.02. Moreover, the “Cytotoxic at 30 μM” value in series [1] is listed as “Yes”.
For `COc1ccc([C@@H](C)N(CC=C(c2ccccc2)c2ccccc2)CCN2CCN(C(=O)OC(C)(C)C)CC2)cc1` [NY345, (R)-tert-butyl 4-(2-((3,3-diphenylallyl)(1-(4-methoxyphenyl)ethyl)amino)ethyl) piperazine-1-carboxylate], in that order: 0.329 µM, 0.819 and “No”.
On to `COc1ccc([C@@H](C)N(C/C=C/c2ccccc2)CCN2CCN(C)CC2)cc1` [NY346, (R,E)-N-(1-(4-methoxyphenyl)ethyl)-N-(2-(4-methylpiperazin-1-yl)ethyl)-3-phenylprop-2-en-1-amine], for which, at mGFP-K-RASG12V, the “KRAS PM localization inhibition activity (in words)” value is listed as “complete loss of in vitro activity”, the IC50 was 14.8 µM and the Emax is 0.84 ± 0.01. Also, the “Cytotoxic at 30 μM” value in series [1] is on record as “No”.
Take `COc1ccc([C@@H](C)N(CC=C(c2ccccc2)c2ccccc2)CCN2CCNCC2)cc1` [NY347, (R)-N-(1-(4-methoxyphenyl)ethyl)-3,3-diphenyl-N-(2-(piperazin-1-yl)ethyl)prop-2-en-1-amine]: the IC50 at mGFP-K-RASG12V was determined as 1.3 µM. The Emax at mGFP-K-RASG12V is recorded as 0.86 ± 0.02; at mGFP-K-RASG12V (listed as 12e), 0.90. Besides, the “Cytotoxic at 30 μM” value in series [1] was “Yes”; in series [1] (listed as 12e), “cytotoxicity”.
With `CCOC(CCCN(CC=C(c1ccccc1)c1ccccc1)[C@H](C)c1ccc(OC)cc1)OCC` [NY348, (R)-N-(3,3-diphenylallyl)-4,4-diethoxy-N-(1-(4-methoxyphenyl)ethyl)butan-1-amine], on mGFP-K-RASG12V, the IC50 turned out to be 5.47 µM and the Emax is listed as 0.963. The “Cytotoxic at 30 μM” value in series [1] was “No”.
Take `C=CCN(CCN1CCN(C)CC1)[C@H](C)c1ccc(OC)cc1` [NY349, (R)-N-(1-(4-methoxyphenyl)ethyl)-N-(2-(4-methylpiperazin-1-yl)ethyl)prop-2-en-1-amine]: at mGFP-K-RASG12V, the “KRAS PM localization inhibition activity (in words)” value is reported as “complete loss of in vitro activity”, the IC50 was 59.3 µM and the Emax was 0.76 ± 0.02. Also, the “Cytotoxic at 30 μM” value in series [1] is on record as “No”.
In turn, `COc1ccc([C@@H](C)N(CC=C(c2ccccc2)c2ccccc2)CCN2CCN(C(C)=O)CC2)cc1` [NY350, (R)-1-(4-(2-((3,3-diphenylallyl)(1-(4-methoxyphenyl)ethyl)amino)ethyl)piperazin-1-yl)ethanone] came in with an Emax at mGFP-K-RASG12V of 0.877. In addition, the “Cytotoxic at 30 μM” value in series [1] is listed as “No”.
For the compound `COc1ccc([C@@H](C)N(CC=C(c2ccccc2)c2ccccc2)CCN2CCN(S(C)(=O)=O)CC2)cc1` [NY351, (R)-N-(1-(4-methoxyphenyl)ethyl)-N-(2-(4-(methylsulfonyl)piperazin-1-yl)ethyl)-3,3-diphenylprop-2-en-1-amine], on mGFP-K-RASG12V, the IC50 amounted to 1.11 µM and the Emax turned out to be 0.851. In addition, in series [1], the “Cytotoxic at 30 μM” value is on record as “No”.
For `COc1ccc([C@@H](C)N(CC=C(c2ccccc2)c2ccccc2)CCN2CCN(C(=O)Nc3ccccc3)CC2)cc1` [NY352, (R)-4-(2-((3,3-diphenylallyl)(1-(4-methoxyphenyl)ethyl)amino)ethyl)-N-phenylpiperazine-1-carboxamide], in that order: 1.68 µM, 0.920 and “Yes”.
Consider `COc1ccc([C@@H](C)N(CC=C(c2ccccc2)c2ccccc2)CCN2CCN(C(=O)Oc3ccccc3)CC2)cc1` [NY353, (R)-phenyl 4-(2-((3,3-diphenylallyl)(1-(4-methoxyphenyl)ethyl)amino)ethyl) piperazine-1-carboxylate], for which, on mGFP-K-RASG12V, the IC50 was found to be 3.26 µM and the Emax is 0.920. For the same compound, the “Cytotoxic at 30 μM” value in series [1] was “No”.
For `C#CCN1CCN(CCN(CC=C(c2ccccc2)c2ccccc2)[C@H](C)c2ccc(OC)cc2)CC1` [NY356, (R)-N-(1-(4-methoxyphenyl)ethyl)-3,3-diphenyl-N-(2-(4-(prop-2-ynyl)piperazin-1-yl)ethyl)prop-2-en-1-amine], in that order: 4.19 µM, 0.886 and “No”.
Consider `C=CC(=O)N1CCN(CCN(CC=C(c2ccccc2)c2ccccc2)[C@H](C)c2ccc(OC)cc2)CC1` [NY0357a, (R)-1-(4-(2-((3,3-diphenylallyl)(1-(4-methoxyphenyl)ethyl)amino)ethyl)piperazin-1-yl)prop-2-en-1-one], for which, on mGFP-K-RASG12V, the IC50 amounted to 2.55 µM and the Emax was 0.697. The “Cytotoxic at 30 μM” value in series [1] is reported as “Yes”.
For the compound `CCN(CC)CCN(CC=C(c1ccccc1)c1ccccc1)[C@H](C)c1ccc(OC)cc1` [NY0358, (R)-N^1-(3,3-diphenylallyl)-N^2,N^2-diethyl-N^1-(1-(4-methoxyphenyl)ethyl)ethane-1,2-diamine], at mGFP-K-RASG12V, the IC50 is 1.15 µM and 1.2 µM; the Emax is recorded as 0.887. Moreover, the Emax on mGFP-K-RASG12V (listed as 12b) is listed as 0.89 ± 0.01. For the same compound, the “Cytotoxic at 30 μM” value in series [1] is listed as “Yes”.
Turning to `COc1ccccc1[C@@H](C)N(CC=C(c1ccccc1)c1ccccc1)CCN1CCN(C)CC1` [NY0366, (R)-N-(1-(2-methoxyphenyl)ethyl)-N-(2-(4-methylpiperazin-1-yl)ethyl)-3,3-diphenylprop-2-en-1-amine], the IC50 on mGFP-K-RASG12V (listed as 15b) was found to be 3.8 µM; on mGFP-K-RASG12V, 3.81 µM. The results for the Emax on mGFP-K-RASG12V and at mGFP-K-RASG12V (listed as 15b) were 0.861 and 0.86 ± 0.01, respectively. Also, in series [1], the “Cytotoxic at 30 μM” value is given as “Yes”.
Take `CN1CCN(CCN(CC=C(c2ccccc2)c2ccccc2)[C@@H]2CCc3ccccc32)CC1` [NY0369b, (R)-N-(3,3-diphenylallyl)-N-(2-(4-methylpiperazin-1-yl)ethyl)-2,3-dihydro-1H-inden-1-amine]: at mGFP-K-RASG12V, the IC50 stood at 90.1 µM and the Emax is 0.866. Also, the “Cytotoxic at 30 μM” value in series [1] was “Yes”.
In the case of `C[C@H](c1cccc(Cl)c1)N(CC=C(c1ccccc1)c1ccccc1)CCN1CCN(C)CC1` [NY0370b, (R)-N-(1-(3-chlorophenyl)ethyl)-N-(2-(4-methylpiperazin-1-yl)ethyl)-3,3-diphenylprop-2-en-1-amine], at mGFP-K-RASG12V, the IC50 is 11.2 µM and the Emax is given as 0.767. In addition, at mGFP-K-RASG12V (listed as 15g), the Emax came to 0.77 ± 0.07. Moreover, the “Cytotoxic at 30 μM” value in series [1] was “Yes”.
On to `COc1ccc([C@@H](C)N(CC=C(c2ccccc2)c2ccccc2)CCN2CCN(CC(C)C)CC2)cc1` [NY0372, (R)-N-(2-(4-isobutylpiperazin-1-yl)ethyl)-N-(1-(4-methoxyphenyl)ethyl)-3,3-diphenylprop-2-en-1-amine], for which, at mGFP-K-RASG12V, the IC50 was found to be 16.4 µM and the Emax was determined as 0.868. Besides, the “Cytotoxic at 30 μM” value in series [1] is “No”.
In the case of `CCN(CC=C(c1ccccc1)c1ccccc1)[C@H](C)c1ccc(OC)cc1` [NY0429, (R)-N-ethyl-N-(1-(4-methoxyphenyl)ethyl)-3,3-diphenylprop-2-en-1-amine], on mGFP-K-RASG12V (listed as 11b), the IC50 came out at 10.6 µM and the Emax worked out at 0.84 ± 0.02. Besides, on mGFP-K-RASG12V, the IC50 is 10.6 µM and the Emax is on record as 0.835. The “Cytotoxic at 30 μM” value in series [1] was “No”.
For the compound `CCN(CC=C(c1ccccc1)c1ccccc1)[C@@H](C)c1ccc(OC)cc1` [NY0431], at mGFP-K-RASG12V, the IC50 is 2.91 µM and the Emax turned out to be 0.756. The “Cytotoxic at 30 μM” value in series [1] is “No”.
On the same counts, the results for `COc1ccc([C@H](C)N(CC=C(c2ccccc2)c2ccccc2)CCN(C)C)cc1` [NY0434] are 4.69 µM, 0.835 and “No”.

Source of the values: patent US12043602B2, “Fendiline derivatives” (The Board of Regents of the University of Texas System, priority 2019, dated 2024).
